In ChEMBL document CHEMBL1146614, “High-affinity thrombin receptor (PAR-1) ligands: a new generation of indole-based peptide mimetic antagonists with a basic amine at the C-terminus” (Bioorg Med Chem Lett, 2003):
pIC50: −log10 of the molar value.

Tests used:
[1] = Ability to block thrombin (0.15 nM)-induced platelet aggregation; assay type: functional
[2] = Ability to block U-46,619 (0.3 uM)-induced platelet aggregation; inactive at a concentration of 50 uM; assay type: functional
[3] = Ability to block collagen (3 ug/mL)-induced platelet aggregation; assay type: functional
[4] = Ability to block TRAP-6 (2 uM)-induced platelet aggregation; assay type: functional
[5] = molecular target: T1, Proteinase-activated receptor 1 (Homo sapiens, UniProt P25116); test: Ability to inhibit the binding of [3H]S-(p-F-Phe)-homoarginine-L-homoarginine-KY-NH2 to thrombin receptor on the membranes of CHRF-288-11 cells
T1 sequence (P25116 whole entry): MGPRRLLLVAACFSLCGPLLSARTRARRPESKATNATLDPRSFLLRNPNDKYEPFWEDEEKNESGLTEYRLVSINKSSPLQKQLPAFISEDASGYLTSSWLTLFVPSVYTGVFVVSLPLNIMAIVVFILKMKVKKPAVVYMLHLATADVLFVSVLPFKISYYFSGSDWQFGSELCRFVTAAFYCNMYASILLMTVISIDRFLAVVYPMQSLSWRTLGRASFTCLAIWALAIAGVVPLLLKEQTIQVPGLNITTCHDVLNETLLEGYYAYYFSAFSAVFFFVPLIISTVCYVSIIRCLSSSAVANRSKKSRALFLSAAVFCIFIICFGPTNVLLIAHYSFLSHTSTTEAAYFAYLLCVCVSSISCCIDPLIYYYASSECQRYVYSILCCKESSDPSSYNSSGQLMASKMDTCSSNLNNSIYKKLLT

[6] = Ability to block U-46,619 (0.3 uM)-induced platelet aggregation; assay type: functional

| Structure (SMILES) | pIC50 [1] | IC50 [2] | pIC50 [3] | pIC50 [4] | pIC50 [5] | pIC50 [6] |
| --- | --- | --- | --- | --- | --- | --- |
| NCC[C@H](NC(=O)[C@H](Cc1ccc(F)c(F)c1)NC(=O)Nc1ccc2c(CN3CCCC3)cn(Cc3c(Cl)cccc3Cl)c2c1)C(=O)NCc1cccs1 | 6.10 | Not Active | 5.15 | 6.80 | 6.64 | – |
| COc1ccc(CNC(=O)[C@H](CCN)NC(=O)[C@H](Cc2ccc(F)c(F)c2)NC(=O)Nc2ccc3c(CN4CCCC4)cn(Cc4c(Cl)cccc4Cl)c3c2)cc1 | 6.15 | – | 5.17 | 7.00 | 6.32 | 5.19 |
| NCC[C@H](NC(=O)[C@H](Cc1ccc(F)c(F)c1)NC(=O)Nc1ccc2c(CN3CCCC3)cn(Cc3c(Cl)cccc3Cl)c2c1)C(=O)NCCc1ccccc1 | 6.09 | – | 5.52 | 6.80 | 6.92 | 5.12 |
| NCC[C@H](NC(=O)[C@H](Cc1ccc(F)c(F)c1)NC(=O)Nc1ccc2c(CN3CCCC3)cn(Cc3c(Cl)cccc3Cl)c2c1)C(=O)NCc1ccccn1 | 5.96 | – | 5.08 | 6.72 | 6.48 | 4.70 |
| NCC[C@H](NC(=O)[C@H](Cc1ccc(F)c(F)c1)NC(=O)Nc1ccc2c(CN3CCCC3)cn(Cc3c(Cl)cccc3Cl)c2c1)C(=O)NCc1ccco1 | 6.11 | Not Active | 5.10 | 7.15 | 6.80 | – |
| CSC[C@H](NC(=O)[C@H](Cc1ccc(F)c(F)c1)NC(=O)Nc1ccc2c(CN3CCCC3)cn(Cc3c(Cl)cccc3Cl)c2c1)C(=O)NCCN | 5.89 | – | 4.57 | 7.22 | 7.22 | 4.73 |
| NCC[C@H](NC(=O)[C@H](Cc1ccc(F)c(F)c1)NC(=O)Nc1cccc2c(CN3CCCC3)cn(Cc3c(Cl)cccc3Cl)c12)C(=O)NCCN1CCCC1 | 4.64 | Not Active | – | 5.37 | 4.66 | – |
| NCC[C@H](NC(=O)[C@H](Cc1ccc(F)c(F)c1)NC(=O)Nc1cccc2c1c(CN1CCCC1)cn2Cc1c(Cl)cccc1Cl)C(=O)NCCN1CCCC1 | 4.40 | Not Active | – | 4.80 | – | – |
| NCC[C@H](NC(=O)[C@H](Cc1ccc(F)c(F)c1)NC(=O)Nc1ccc2c(CN3CCCC3)cn(Cc3c(Cl)cccc3Cl)c2c1)C(=O)NCCc1ccccn1 | 6.06 | – | 5.18 | 6.82 | 6.30 | 4.99 |
| NCC[C@H](NC(=O)[C@H](Cc1ccc(F)c(F)c1)NC(=O)Nc1ccc2c(CN3CCCC3)cn(Cc3c(Cl)cccc3Cl)c2c1)C(=O)NCCN1CCCC1 | 6.34 | Not Active | – | 7.30 | – | – |

The next compounds have a higher pIC50 [1] than those just listed; values first:

| pIC50 [1] | IC50 [2] | pIC50 [3] | pIC50 [4] | pIC50 [5] | pIC50 [6] | Structure (SMILES) |
| --- | --- | --- | --- | --- | --- | --- |
| 6.47 | Not Active | – | 6.80 | 6.36 | – | NCC[C@H](NC(=O)[C@H](Cc1ccc(F)c(F)c1)NC(=O)Nc1ccc2c(CN3CCCC3)cn(Cc3c(Cl)cccc3Cl)c2c1)C(=O)NCc1ccccc1 |
| 6.57 | Not Active | 4.78 | 7.10 | 7.46 | – | NCCNC(=O)[C@H](Cc1cccs1)NC(=O)[C@H](Cc1ccc(F)c(F)c1)NC(=O)Nc1ccc2c(CN3CCCC3)cn(Cc3c(Cl)cccc3Cl)c2c1 |
| 6.66 | – | 5.33 | 7.15 | 7.60 | 4.62 | CSCC[C@H](NC(=O)[C@H](Cc1ccc(F)c(F)c1)NC(=O)Nc1ccc2c(CN3CCCC3)cn(Cc3c(Cl)cccc3Cl)c2c1)C(=O)NCCN |
| 6.89 | Not Active | – | 7.30 | 7.15 | – | NCCNC(=O)[C@H](Cc1ccncc1)NC(=O)[C@H](Cc1ccccc1F)NC(=O)Nc1ccc2c(CN3CCCC3)cn(Cc3c(Cl)cccc3Cl)c2c1 |
| 6.70 | – | 4.96 | 7.30 | 6.37 | 4.76 | NCCCNC(=O)[C@H](CCN)NC(=O)[C@H](Cc1ccc(Cl)cc1)NC(=O)Nc1ccc2c(CN3CCCC3)cn(Cc3c(Cl)cccc3Cl)c2c1 |
| 6.39 | – | 4.52 | 7.15 | 6.89 | 4.73 | NCCCNC(=O)[C@H](Cc1cnc[nH]1)NC(=O)[C@H](Cc1ccc(Cl)cc1)NC(=O)Nc1ccc2c(CN3CCCC3)cn(Cc3c(Cl)cccc3Cl)c2c1 |
| 6.60 | – | 4.80 | 7.22 | 6.51 | 4.66 | NCCC[C@H](NC(=O)[C@H](Cc1ccc(F)c(F)c1)NC(=O)Nc1ccc2c(CN3CCCC3)cn(Cc3c(Cl)cccc3Cl)c2c1)C(=O)NCCN1CCCC1 |
| 6.39 | – | – | 6.89 | 7.05 | 4.86 | CCNCCNC(=O)[C@H](CCN)NC(=O)[C@H](Cc1ccc(F)c(F)c1)NC(=O)Nc1ccc2c(CN3CCCC3)cn(Cc3c(Cl)cccc3Cl)c2c1 |
